Values quoted from earlier work, collected in patent US20090253620A1, “METHODS AND COMPOSITIONS FOR TREATING GASTROINTESTINAL RADIOSENSITITIVITY IN A SUBJECT” (WASHINGTON UNIVERSITY IN ST. LOUIS, priority 2005, published 2009).

How the values were obtained:
[1] = system: intestinal mesenchymal cells; settings: CONV-R wt mice
[2] = system: mice; settings: CONV-R wt mice

Fgf-2: fibroblast growth factor-2
TBI-induced intestinal mesenchymal apoptosis [1]: attenuates
TBI-associated mortality [2]: decreases
